Test systems include UACC-257 melanoma; HCT-116 colon; M14 melanoma; A549 NSCLC; RPMI-8226 leukemia; BT-549 breast; HL-60(TB) leukemia; EKVX NSCLC; NCI-H522 lung; HCC-2998 colon.
Holding throughout (experiment): NCI anticancer screen, dose series, 48 h

Molecules are shown by their SMILES.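 48-hour exposure; five concentrations; linearly interpolated endpoints. The concentration for 50% growth inhibition is given as GI50. At the TGI there is no net growth.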 Some results are limits rather than exact numbers.

`CCOC(=O)c1c2c(n(Cc3ccc(Cl)cc3Cl)c1C)-c1nc[nH]c1C(=O)C2=O`: the GI50 in the experiment with UACC-257 melanoma was 14.2 µM; in the experiment on HCT-116 colon, 2.16 µM; in the experiment with M14 melanoma, 14.7 µM; with A549 NSCLC, 10.9 µM; in the experiment with RPMI-8226 leukemia, 2.5 µM; in the experiment on BT-549 breast, 15.5 µM. The GI50 was 2.18 µM with HL-60(TB) leukemia, 13 µM in the experiment on EKVX NSCLC and 10.3 µM in the experiment with NCI-H522 lung. The TGI came out at 27.3 µM in the experiment with UACC-257 melanoma; 5.66 µM with HCT-116 colon; 27.8 µM with M14 melanoma; 23.1 µM with A549 NSCLC; 6.03 µM with RPMI-8226 leukemia; 31.8 µM in the experiment with BT-549 breast. Also, the results for the TGI in the experiment on HL-60(TB) leukemia, in the experiment with EKVX NSCLC and with NCI-H522 lung were 5.14 µM, 27.4 µM and 23.1 µM, respectively.

Regarding `O=C(Nc1cccc(-n2cc(-c3ccncc3)c(-c3ccc(Cl)c(O)c3)n2)c1)c1ccc(N2CCOCC2)c(C(F)(F)F)c1`, the GI50 with UACC-257 melanoma is 6.3 µM; with HCT-116 colon it was 2.87 µM; with M14 melanoma, 1.63 µM; with A549 NSCLC it was 3.08 µM; in the experiment on HCC-2998 colon it was 5.66 µM; in the experiment with RPMI-8226 leukemia, 1.4 µM. The GI50 was 19.4 µM in the experiment on BT-549 breast, 3.81 µM in the experiment with HL-60(TB) leukemia and 2.31 µM in the experiment with NCI-H522 lung. Besides, the TGI was 36.8 µM with UACC-257 melanoma; > 50 µM in the experiment with HCT-116 colon; 9.1 µM in the experiment with M14 melanoma; > 50 µM with A549 NSCLC; > 50 µM in the experiment on HCC-2998 colon; 12.5 µM in the experiment with RPMI-8226 leukemia. Also, the TGI in the experiment on BT-549 breast was > 50 µM; in the experiment with HL-60(TB) leukemia, > 50 µM; in the experiment on NCI-H522 lung, 44 µM.

As for `O=[N+]([O-])c1ccc2c(c1)Cc1cc(N=Cc3ccc4c(c3)OCO4)ccc1-2`, the TGI in the experiment with UACC-257 melanoma, in the experiment with HCT-116 colon, in the experiment with M14 melanoma, in the experiment on A549 NSCLC, with RPMI-8226 leukemia and with BT-549 breast was > 100 µM throughout. Further, the TGI with HL-60(TB) leukemia, in the experiment on EKVX NSCLC and in the experiment with NCI-H522 lung was > 100 µM each time.

Turning to `CCC(C)[C@H]1O[C@]2(C=C[C@@H]1C)C[C@@H]1C[C@@H](C/C=C(\C)[C@@H](OC3C[C@H](OC)C(O[C@H]4C[C@H](OC)[C@@H](O)[C@H](C)O4)[C@H](C)O3)[C@@H](C)/C=C/C=C3\CO[C@@H]4[C@H](O)C(C)=C[C@@H](C(=O)O1)[C@]34O)O2` (stereo partly drawn), the GI50 is 1.56 µM with UACC-257 melanoma; 0.752 µM with HCT-116 colon; 1.04 µM with M14 melanoma; 1.22 µM in the experiment with A549 NSCLC; 0.843 µM in the experiment on HCC-2998 colon; 1.58 µM in the experiment on RPMI-8226 leukemia. Also, the GI50 was 0.864 µM in the experiment with BT-549 breast, 1.16 µM with HL-60(TB) leukemia and 0.89 µM in the experiment on NCI-H522 lung. Further, the TGI in the experiment with UACC-257 melanoma is 5.74 µM; in the experiment on HCT-116 colon, 1.53 µM; in the experiment on M14 melanoma, 2.33 µM; in the experiment with A549 NSCLC it was 7.04 µM; with HCC-2998 colon, 1.67 µM; with RPMI-8226 leukemia, 50 µM. Further, the results for the TGI with BT-549 breast, in the experiment on HL-60(TB) leukemia and in the experiment with NCI-H522 lung were 1.66 µM, 2.59 µM and 1.93 µM, respectively.

In the case of `CCN(Cc1ccc(F)cc1)c1ccc(CO)c(F)c1`, the GI50 with UACC-257 melanoma is 2.33 µM; with HCT-116 colon it was 2.38 µM; in the experiment with M14 melanoma, 20.4 µM; in the experiment on A549 NSCLC it was 10.5 µM; with HCC-2998 colon, 18.7 µM; in the experiment on RPMI-8226 leukemia, 7.13 µM. In addition, the GI50 is 12.5 µM with BT-549 breast, 12.8 µM in the experiment with HL-60(TB) leukemia and 14.1 µM in the experiment with NCI-H522 lung. Moreover, the TGI was 9.29 µM with UACC-257 melanoma; 13.5 µM with HCT-116 colon; > 67.5 µM in the experiment with M14 melanoma; > 66.1 µM in the experiment with A549 NSCLC; 54.6 µM in the experiment on HCC-2998 colon; 33.7 µM in the experiment with RPMI-8226 leukemia. Further, the TGI came out at 39.4 µM with BT-549 breast, 37.3 µM with HL-60(TB) leukemia and 35.8 µM in the experiment on NCI-H522 lung.

For the molecule `CCC1CN2C(=N1)c1ccccc1-c1cc(Cl)ccc12` (stereo not drawn), the GI50 is 2.96 µM in the experiment with UACC-257 melanoma; 2.53 µM with HCT-116 colon; 3.13 µM with M14 melanoma; 2.24 µM with A549 NSCLC; 4.17 µM with HCC-2998 colon; 13.2 µM in the experiment with BT-549 breast. For the same molecule, the GI50 in the experiment on HL-60(TB) leukemia was 1.85 µM; in the experiment with EKVX NSCLC, 4.74 µM; with NCI-H522 lung, 2.58 µM. For the same molecule, the TGI worked out at 10.3 µM in the experiment with UACC-257 melanoma; 10.6 µM in the experiment with HCT-116 colon; 10.4 µM in the experiment on M14 melanoma; 15.6 µM with A549 NSCLC; 16.3 µM in the experiment on HCC-2998 colon; 50.3 µM in the experiment with BT-549 breast. Further, the TGI in the experiment on HL-60(TB) leukemia was determined as 9.34 µM; with EKVX NSCLC it was 26.6 µM; with NCI-H522 lung it was 8.19 µM.

In the case of `COc1ccc(/C=C/C(=O)c2ccc(O)c(CN3CCN(c4cc5c(cc4F)c(=O)c(C(=O)O)cn5C4CC4)CC3)c2)cc1`, the GI50 is 2.17 µM with UACC-257 melanoma; 0.368 µM in the experiment with HCT-116 colon; 1.13 µM in the experiment on M14 melanoma; 3.69 µM in the experiment with A549 NSCLC; 4.15 µM in the experiment with HCC-2998 colon; 1.28 µM in the experiment with BT-549 breast. Also, the GI50 was 8.35 µM in the experiment with EKVX NSCLC and 1.98 µM in the experiment on NCI-H522 lung. For the same molecule, the TGI in the experiment on UACC-257 melanoma is 69.9 µM; in the experiment with HCT-116 colon it was > 100 µM; with M14 melanoma, > 100 µM; in the experiment on A549 NSCLC, > 100 µM; in the experiment on HCC-2998 colon, > 100 µM; with BT-549 breast, > 100 µM. Moreover, the TGI in the experiment with EKVX NSCLC is > 100 µM; in the experiment on NCI-H522 lung it was 28.7 µM.

`CCn1cnc(C[C@H](NC(=O)[C@@H](NC(=O)Nc2cc(C(F)(F)F)cc(C(F)(F)F)c2)C(C)C)C(=O)OC)c1`: the GI50 in the experiment with UACC-257 melanoma is > 10 µM; with HCT-116 colon, 1.86 µM; in the experiment with M14 melanoma it was 3.54 µM; in the experiment on A549 NSCLC it was 3.19 µM; in the experiment with HCC-2998 colon, 2.27 µM; with RPMI-8226 leukemia it was 2.76 µM. Besides, the GI50 in the experiment with BT-549 breast is 1.78 µM; in the experiment with HL-60(TB) leukemia, 6.18 µM; in the experiment on NCI-H522 lung it was 1.78 µM. Besides, the TGI in the experiment on UACC-257 melanoma was > 10 µM; in the experiment on HCT-116 colon it was 3.93 µM; in the experiment with M14 melanoma it was > 10 µM; in the experiment on A549 NSCLC, > 10 µM; with HCC-2998 colon, 5.32 µM; in the experiment on RPMI-8226 leukemia, 8.45 µM. Moreover, the results for the TGI in the experiment with BT-549 breast, in the experiment on HL-60(TB) leukemia and in the experiment with NCI-H522 lung were 3.58 µM, > 10 µM and 3.98 µM, respectively.

The values above are taken from PubChem BioAssay (NCI).
